pIC50: −log10 of the molar value. Like-named read-outs stand apart in the source and are kept apart here.
What was measured:
FGFR2 = FGFR2 (Homo sapiens (Human), UniProt P21802); assay: FGFR Enzymatic Assay (FGFR2); format: biochemical;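 note: FRET read-out of peptide phosphorylation by the purified kinase, with enzyme-free blank and uninhibited enzyme as controls, potency from a variable-slope sigmoidal dose-response fit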
FGFR1 = FGFR1 (Homo sapiens (Human), UniProt P11362); assay: FGFR Enzymatic Assay (FGFR1); format: biochemical; conditions: enzyme 0.02 nM, ATP 210 μM
Sequence of FGFR1 (P11362 22-822): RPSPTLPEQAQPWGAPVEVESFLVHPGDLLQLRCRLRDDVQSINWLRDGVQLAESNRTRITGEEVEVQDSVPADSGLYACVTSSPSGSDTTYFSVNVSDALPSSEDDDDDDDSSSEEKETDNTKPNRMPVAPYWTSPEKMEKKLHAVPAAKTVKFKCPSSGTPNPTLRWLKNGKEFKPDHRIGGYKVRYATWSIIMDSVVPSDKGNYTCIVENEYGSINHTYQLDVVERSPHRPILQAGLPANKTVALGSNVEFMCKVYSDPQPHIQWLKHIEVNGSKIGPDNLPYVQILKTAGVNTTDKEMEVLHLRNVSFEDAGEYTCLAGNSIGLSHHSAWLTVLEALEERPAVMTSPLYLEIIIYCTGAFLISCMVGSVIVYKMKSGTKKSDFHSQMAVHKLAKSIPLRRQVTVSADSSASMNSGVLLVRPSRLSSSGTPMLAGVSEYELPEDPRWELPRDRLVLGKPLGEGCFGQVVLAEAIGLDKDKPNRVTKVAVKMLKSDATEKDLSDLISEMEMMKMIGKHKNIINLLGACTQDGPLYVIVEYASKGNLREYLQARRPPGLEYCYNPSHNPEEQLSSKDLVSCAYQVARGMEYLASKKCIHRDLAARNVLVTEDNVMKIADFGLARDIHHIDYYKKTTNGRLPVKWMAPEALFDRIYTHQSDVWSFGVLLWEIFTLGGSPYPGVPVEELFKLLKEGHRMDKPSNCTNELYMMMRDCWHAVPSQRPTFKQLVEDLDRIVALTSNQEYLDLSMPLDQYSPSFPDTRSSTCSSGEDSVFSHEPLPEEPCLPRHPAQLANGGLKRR
Procedure: (§1) The inhibitor potency of compounds was measured in an enzyme assay that measures peptide phosphorylation using FRET measurements to detect product formation. Inhibitors were serially diluted in DMSO and a volume of 0.5 μL was transferred to the wells of a 384-well plate. For FGFR3, a 10 μL volume of FGFR3 enzyme (Millipore) diluted in assay buffer (50 mM HEPES, 10 mM MgCl2, 1 mM EGTA, 0.01% Tween-20, 5 mM DTT, pH 7.5) was added to the plate and pre-incubated for 5-10 minutes. Appropriate controls (enzyme blank and enzyme with no inhibitor) were included on the plate. […] The plate was incubated at 25° C. for 1 hr. […] The plate was allowed to equilibrate for ˜1 hr before scanning the wells on a PheraStar plate reader.
(§2) GraphPad prism3 was used to analyze the data. The IC50 values were derived by fitting the data to the equation for a sigmoidal dose-response with a variable slope. Y=Bottom+(Top−Bottom)/(1+10^((Log IC50−X)*HillSlope)) where X is the logarithm of concentration and Y is the response.

FGFR3 enzyme (Millipore) = FGFR3 enzyme (Millipore) (Homo sapiens (Human), UniProt P22607); conditions: read-out: FGFR3 IC50, ATP 140 μM
Sequence of FGFR3 enzyme (Millipore) (P22607 23-806): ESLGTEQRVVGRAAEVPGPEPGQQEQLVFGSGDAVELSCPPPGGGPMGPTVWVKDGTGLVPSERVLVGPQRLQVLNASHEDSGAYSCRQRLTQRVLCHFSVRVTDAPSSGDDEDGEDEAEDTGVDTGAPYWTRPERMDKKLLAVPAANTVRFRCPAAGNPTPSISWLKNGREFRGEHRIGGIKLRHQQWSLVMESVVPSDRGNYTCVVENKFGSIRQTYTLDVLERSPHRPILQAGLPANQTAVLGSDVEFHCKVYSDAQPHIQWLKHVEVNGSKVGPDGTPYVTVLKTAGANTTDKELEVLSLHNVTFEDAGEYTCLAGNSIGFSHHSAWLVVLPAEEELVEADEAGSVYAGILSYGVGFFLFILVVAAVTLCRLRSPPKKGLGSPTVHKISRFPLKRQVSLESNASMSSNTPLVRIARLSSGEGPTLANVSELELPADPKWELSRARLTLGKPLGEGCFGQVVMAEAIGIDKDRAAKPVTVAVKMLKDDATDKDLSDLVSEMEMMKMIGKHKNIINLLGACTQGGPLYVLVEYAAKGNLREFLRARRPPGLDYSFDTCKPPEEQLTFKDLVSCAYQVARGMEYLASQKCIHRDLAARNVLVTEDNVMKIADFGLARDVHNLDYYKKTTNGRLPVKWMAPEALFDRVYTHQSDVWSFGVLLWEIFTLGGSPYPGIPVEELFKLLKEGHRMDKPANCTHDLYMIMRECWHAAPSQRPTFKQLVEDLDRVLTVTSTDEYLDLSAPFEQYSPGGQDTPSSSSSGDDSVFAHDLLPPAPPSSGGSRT
Procedure: as §1, §2

[1] = enzyme 0.01 nM, ATP 100 μM, read-out: FGFR2 IC50

Sequence of FGFR2 (P21802 22-821): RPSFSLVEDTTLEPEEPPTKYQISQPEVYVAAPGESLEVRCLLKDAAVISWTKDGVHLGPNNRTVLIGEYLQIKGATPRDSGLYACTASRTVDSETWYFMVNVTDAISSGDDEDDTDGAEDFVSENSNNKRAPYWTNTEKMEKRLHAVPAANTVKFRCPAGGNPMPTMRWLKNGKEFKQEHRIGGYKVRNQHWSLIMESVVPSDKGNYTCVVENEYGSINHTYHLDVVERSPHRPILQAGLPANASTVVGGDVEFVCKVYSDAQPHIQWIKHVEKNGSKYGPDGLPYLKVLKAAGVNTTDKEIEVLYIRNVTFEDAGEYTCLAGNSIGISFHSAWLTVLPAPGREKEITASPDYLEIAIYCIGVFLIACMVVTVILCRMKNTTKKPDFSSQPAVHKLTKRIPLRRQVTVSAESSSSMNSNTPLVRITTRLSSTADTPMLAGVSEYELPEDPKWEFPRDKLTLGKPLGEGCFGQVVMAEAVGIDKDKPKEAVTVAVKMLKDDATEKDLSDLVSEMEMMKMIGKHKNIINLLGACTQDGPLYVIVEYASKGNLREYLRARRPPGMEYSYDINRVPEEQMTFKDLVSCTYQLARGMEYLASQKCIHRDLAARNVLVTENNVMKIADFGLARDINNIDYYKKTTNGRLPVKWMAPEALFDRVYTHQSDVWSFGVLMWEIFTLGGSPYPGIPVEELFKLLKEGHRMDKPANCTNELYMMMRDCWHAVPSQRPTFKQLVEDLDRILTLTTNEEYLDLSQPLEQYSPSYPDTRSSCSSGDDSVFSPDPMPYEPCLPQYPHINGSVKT

| pIC50 (FGFR2; [1]) | pIC50 (FGFR1) | pIC50 (FGFR3 enzyme (Millipore); class symbols) | SMILES | pIC50 (FGFR2) | pIC50 (FGFR3 enzyme (Millipore); numeric bounds) |
| --- | --- | --- | --- | --- | --- |
| > 7.00 | > 7.00 | > 7.00 | COc1cc(CCc2cnc3[nH]c(-c4cnn(C(CC#N)C5CCCC5)c4)cc3n2)cc(OC)c1 (stereo not drawn) [Example 35, 3-cyclopentyl-3-(4-{2-[2-(3,5-dimethoxyphenyl)ethyl]-5H-pyrrolo[2,3-b]pyrazin-6-yl}-1H-pyrazol-1-yl)propanenitrile] |  |  |
| > 7.00 | > 7.00 | > 7.00 | COc1cc(CCc2cnc3[nH]c(-c4cnn(CC(=O)N5CCN(C)CC5)c4)cc3n2)cc(OC)c1 [Example 44, 2-(4-(2-(3,5-dimethoxyphenethyl)-5H-pyrrolo[2,3-b]pyrazin-6-yl)-1H-pyrazol-1-yl)-1-(4-methylpiperazin-1-yl)ethanone] |  |  |
| > 7.00 | > 7.00 | > 7.00 | COc1cc(OC)c(F)c(CCc2cnc3[nH]c(-c4cnn(CCN(C)C)c4)cc3n2)c1F [Example 87, 2-(4-(2-(2,6-difluoro-3,5-dimethoxyphenethyl)-5H-pyrrolo[2,3-b]pyrazin-6-yl)-1H-pyrazol-1-yl)-N,N-dimethylethanamine] |  |  |
| > 7.00 | > 7.00 | > 7.00 | COc1cc(CCc2cnc3[nH]c(-c4ccc(N5CCC(O)CC5)cc4)cc3n2)cc(OC)c1 [Example 77, 1-(4-(2-(3,5-Dimethoxyphenethyl)-5H-pyrrolo[2,3-b]pyrazin-6-yl)phenyl)piperidin-4-ol] |  |  |
| > 7.00 | > 7.00 | > 7.00 | COc1cc(CCc2cnc3[nH]c(-c4ccc(C(=O)O)cc4)cc3n2)cc(OC)c1 [Example 15, 4-{2-[2-(3,5-dimethoxyphenyl)ethyl]-5H-pyrrolo[2,3-b]pyrazin-6-yl}benzoic acid] |  |  |
| > 7.00 | > 7.00 | > 7.00 | COc1cc(CCc2cnc3[nH]c(-c4cccc(N5CCNCC5)c4)cc3n2)cc(OC)c1 [Example 78, 2-(3,5-Dimethoxyphenethyl)-6-(3-(piperazin-1-yl)phenyl)-5H-pyrrolo[2,3-b]pyrazine] |  |  |
| > 7.00 | > 7.00 | > 7.00 | COc1cc(CCc2cnc3[nH]c(-c4ccc(C5CCN(C)CC5)cc4)cc3n2)cc(OC)c1 [Example 22, 2-[2-(3,5-dimethoxyphenyl)ethyl]-6-[4-(1-methylpiperidin-4-yl)phenyl]-5H-pyrrolo[2,3-b]pyrazine] |  |  |
| > 7.00 | > 7.00 | > 7.00 | COc1cc(CCc2cnc3[nH]c(-c4cnn(CCN5CCCCC5)c4)cc3n2)cc(OC)c1 [Example 41, 2-[2-(3,5-dimethoxyphenyl)ethyl]-6-[1-(2-piperidin-1-ylethyl)-1H-pyrazol-4-yl]-5H-pyrrolo[2,3-b]pyrazine] |  |  |
| > 7.00 | > 7.00 | > 7.00 | COc1cc(CCc2cnc3[nH]c(-c4ccc(N5CCN(C)CC5)cc4)c(C)c3n2)cc(OC)c1 [Example 51, 2-[2-(3,5-dimethoxyphenyl)ethyl]-7-methyl-6-[4-(4-methylpiperazin-1-yl)phenyl]-5H-pyrrolo[2,3-b]pyrazine] |  |  |
| > 7.00 | > 7.00 | > 7.00 | CNC(=O)c1ccc(-c2cc3nc(CCc4cc(OC)cc(OC)c4)cnc3[nH]2)cc1F [Example 57, 4-(2-(3,5-Dimethoxyphenethyl)-5H-pyrrolo[2,3-b]pyrazin-6-yl)-2-fluoro-N-methylbenzamide] |  |  |
| > 7.00 | > 7.00 | > 7.00 | COc1cc(CCc2cnc3[nH]c(-c4ccc(N5CCN(C)CC5)cc4)c(Cl)c3n2)cc(OC)c1 [Example 47, 7-chloro-2-[2-(3,5-dimethoxyphenyl)ethyl]-6-[4-(4-methylpiperazin-1-yl)phenyl]-5H-pyrrolo[2,3-b]pyrazine] |  |  |
| > 7.00 | > 7.00 | > 7.00 | COc1cc(CCc2cnc3[nH]c(-c4ccc(N5CCN(C)CC5)cc4)cc3n2)c(Cl)c(OC)c1 [Example 48, 2-[2-(2-chloro-3,5-dimethoxyphenyl)ethyl]-6-[4-(4-methylpiperazin-1-yl)phenyl]-5H-pyrrolo[2,3-b]pyrazine] |  |  |
| > 7.00 | > 7.00 | > 7.00 | COc1cc(CCc2cnc3[nH]c(-c4ccc5c(cnn5C)c4)cc3n2)cc(OC)c1 [Example 62, 2-(3,5-Dimethoxyphenethyl)-6-(1-methyl-1H-indazol-5-yl)-5H-pyrrolo[2,3-b]pyrazine] |  |  |
| > 7.00 | > 7.00 | > 7.00 | COc1cc(CCc2cnc3[nH]c(-c4ccc(N5CCN(C)CC5)cc4)cc3n2)cc(OC)c1 [Example 1, 2-[2-(3,5-dimethoxyphenyl)ethyl]-6-[4-(4-methylpiperazin-1-yl)phenyl]-5H-pyrrolo[2,3-b]pyrazine] |  |  |
| > 7.00 | > 7.00 | > 7.00 | COc1cc(OC)c(F)c(CCc2cnc3[nH]c(-c4cnn(CC(C)(C)O)c4)cc3n2)c1F [Example 88, 1-(4-(2-(2,6-difluoro-3,5-dimethoxyphenethyl)-5H-pyrrolo[2,3-b]pyrazin-6-yl)-1H-pyrazol-1-yl)-2-methylpropan-2-ol] |  |  |
| > 7.00 | > 7.00 | > 7.00 | COc1cc(OC)c(F)c(CCc2cnc3[nH]c(-c4ccccc4C#N)cc3n2)c1F [Example 85, 2-(2-(2,6-difluoro-3,5-dimethoxyphenethyl)-5H-pyrrolo[2,3-b]pyrazin-6-yl)benzonitrile] |  |  |
| > 7.00 | > 7.00 | > 7.00 | COc1cc(OC)c(F)c(CCc2cnc3[nH]c(-c4cn[nH]c4C)cc3n2)c1F [Example 83, 2-[2-(2,6-difluoro-3,5-dimethoxyphenyl)ethyl]-6-(5-methyl-1H-pyrazol-4-yl)-5H-pyrrolo[2,3-b]pyrazine] |  |  |
| > 7.00 | > 7.00 | > 7.00 | COc1cc(CCc2cnc3[nH]c(-c4ccc(CO)cc4)cc3n2)cc(OC)c1 [Example 13, (4-{2-[2-(3,5-dimethoxyphenyl)ethyl]-5H-pyrrolo[2,3-b]pyrazin-6-yl}phenyl)methanol] |  |  |
| > 7.00 | > 7.00 | > 7.00 | CCc1c(-c2ccc(N3CCN(C)CC3)cc2)[nH]c2ncc(CCc3cc(OC)cc(OC)c3)nc12 [Example 52, 2-[2-(3,5-dimethoxyphenyl)ethyl]-7-ethyl-6-[4-(4-methylpiperazin-1-yl)phenyl]-5H-pyrrolo[2,3-b]pyrazine] |  |  |
| > 7.00 | > 7.00 | > 7.00 | COc1cc(CCc2cnc3[nH]c(-c4ccc(N5CCN(C)CC5=O)cc4)cc3n2)cc(OC)c1 [Example 76, 1-(4-(2-(3,5-Dimethoxyphenethyl)-5H-pyrrolo[2,3-b]pyrazin-6-yl)phenyl)-4-methylpiperazin-2-one] |  |  |
| > 7.00 | > 7.00 | > 7.00 | COCc1ccc(-c2cc3nc(CCc4cc(OC)cc(OC)c4)cnc3[nH]2)cc1 [Example 12, 2-[2-(3,5-dimethoxyphenyl)ethyl]-6-[4-(methoxymethyl)phenyl]-5H-pyrrolo[2,3-b]pyrazine] |  |  |
| > 7.00 | > 7.00 | > 7.00 | COc1cc(CCc2cnc3[nH]c(-c4cnn(CCN5CCC(O)CC5)c4)cc3n2)cc(OC)c1 [Example 40, 1-[2-(4-{2-[2-(3,5-dimethoxyphenyl)ethyl]-5H-pyrrolo[2,3-b]pyrazin-6-yl}-1H-pyrazol-1-yl)ethyl]piperidin-4-ol] |  |  |
| > 7.00 | > 7.00 | > 7.00 | COc1cc(CCc2cnc3[nH]c(-c4ccc(N5CCN(C)C(=O)C5)cc4)cc3n2)cc(OC)c1 [Example 81, 4-(4-(2-(3,5-Dimethoxyphenethyl)-5H-pyrrolo[2,3-b]pyrazin-6-yl)phenyl)-1-methylpiperazin-2-one] |  |  |
| > 7.00 | > 7.00 | > 7.00 | COc1cc(CCc2cnc3[nH]c(-c4ccc5c(c4)CC(=O)N5)cc3n2)cc(OC)c1 [Example 80, 5-(2-(3,5-Dimethoxyphenethyl)-5H-pyrrolo[2,3-b]pyrazin-6-yl)indolin-2-one] |  |  |
| > 7.00 | > 7.00 | > 7.00 | COc1cc(CCc2cnc3[nH]c(-c4cnn(CCN(C)C)c4)cc3n2)cc(OC)c1 [Example 34, 2-(4-{2-[2-(3,5-dimethoxyphenyl)ethyl]-5H-pyrrolo[2,3-b]pyrazin-6-yl}-1H-pyrazol-1-yl)-N,N-dimethylethanamine] |  |  |
| > 7.00 | > 7.00 | > 7.00 | COc1cc(CCc2cnc3[nH]c(-c4ccc(N5CCN(C)CC5)cc4)c(Br)c3n2)cc(OC)c1 [Example 46, 7-bromo-2-[2-(3,5-dimethoxyphenyl)ethyl]-6-[4-(4-methylpiperazin-1-yl)phenyl]-5H-pyrrolo[2,3-b]pyrazine] |  |  |
| > 7.00 | > 7.00 | > 7.00 | COc1cc(CCc2cnc3[nH]c(-c4ccc(C(=O)N(C)C)c(Cl)c4)cc3n2)cc(OC)c1 [Example 56, 2-Chloro-4-(2-(3,5-dimethoxyphenethyl)-5H-pyrrolo[2,3-b]pyrazin-6-yl)-N,N-dimethylbenzamide] |  |  |

| SMILES | pIC50 (FGFR2; [1]) | pIC50 (FGFR1) | pIC50 (FGFR3 enzyme (Millipore); class symbols) | pIC50 (FGFR2) | pIC50 (FGFR3 enzyme (Millipore); numeric bounds) |
| --- | --- | --- | --- | --- | --- |
| COc1cc(CCc2cnc3[nH]c(-c4cnc(N(C)C)nc4)cc3n2)cc(OC)c1 [Example 20, 5-{2-[2-(3,5-dimethoxyphenyl)ethyl]-5H-pyrrolo[2,3-b]pyrazin-6-yl}-N,N-dimethylpyrimidin-2-amine] |  | > 7.00 |  | 6.30 to 7.00 | < 6.00 |
| CCN(CC)CC#Cc1cc2nc(CCc3cc(OC)cc(OC)c3)cnc2[nH]1 [Example 27, 3-{2-[2-(3,5-dimethoxyphenyl)ethyl]-5H-pyrrolo[2,3-b]pyrazin-6-yl}-N,N-diethylprop-2-yn-1-amine] |  | > 7.00 |  | 6.30 to 7.00 | < 5.70 |
| COc1cc(CCc2cnc3[nH]c(-c4cnc5nccnc5c4)cc3n2)cc(OC)c1 [Example 66, 7-(2-(3,5-Dimethoxyphenethyl)-5H-pyrrolo[2,3-b]pyrazin-6-yl)pyrido[2,3-b]pyrazine] | > 7.00 | > 7.00 |  |  | < 5.70 |

Reference: US9745311B2, “Substituted pyrrolo[2,3-b]pyrazines as FGFR inhibitors” (Incyte Corporation, priority 2012, dated 2017)
